Results reported in patent US8603498B2, “Lipo-phosphated or lipo-sulphated compound, compositions comprising it and topical uses thereof” (Sederma, S.A.S., priority 2010, dated 2013).

Test system: collagen I
Test: Synthesis of collagen I on human dermal fibroblast (immunolabeling)
Type: cell-based
Settings: 10^−6%, positive control
Method: Normal human fibroblasts (NHF) are cultivated in MW24 plates for 24 hours. The cells are contacted or not with the Lipo-Phosphomalate of the invention at various concentrations for 7 days. The synthesis of collagen I produced by the cells is then quantified by immunolabeling fixed on the layers using a specific antibody. Quantification by image analysis is then performed on the photos. TGF-β1 is used as positive control.
An analysis of variance was performed on the data (cases treated compared with untreated cases). In the case of identity of variances, a Student't test was then performed on the means.

TGF- β1: positive control for laminin and collagen I synthesis
collagen I % Variation/control: +1374%; | collagen I AFU mean: 55 +/− 17.6 AFU
